Measurements as given in patent US20260272907A1, “Therapeutic Tyrosine Kinase Inhibitors for Multiple Sclerosis” (Principia Biopharma Inc., priority 2022, published 2026).

Tested on: patients with relapsing multiple sclerosis
Test: Phase 2b dose-finding study: adverse events (TEAEs, SAEs, AESIs), safety population
Settings: for Proportion of participants with TEAEs: BTK inhibitor treatment period (12 weeks); for Adverse event: Accidental overdose / Adverse event: Alanine aminotransferase increased / Adverse event: Alopecia / Adverse event: Back pain / Adverse event: Gastroenteritis / Adverse event: Headache / Adverse event: Muscle spasticity / Adverse event: Nasopharyngitis / Adverse event: Oropharyngeal pain / Adverse event: Peripheral edema / Adverse event: Respiratory tract infection / Adverse event: Upper respiratory tract infection: 12 weeks treatment
[1] = 15 mg, 12-week treatment period
[2] = 30 mg, 12-week treatment period
[3] = 60 mg, 12-week treatment period
[4] = All (N = 130), BTK inhibitor treatment period, safety population
[5] = All Dose Groups (N = 130), Weeks 1 to 12
[6] = BTK inhibitor 5 (N = 16), Weeks 1 to 4
[7] = BTK inhibitor 5 (N = 33), BTK inhibitor treatment period, safety population
[8] = BTK inhibitor 15 (N = 16), Weeks 1 to 4
[9] = BTK inhibitor 15 (N = 32), BTK inhibitor treatment period, safety population
[10] = BTK inhibitor 30 (N = 16), Weeks 1 to 4
[11] = BTK inhibitor 30 (N = 33), BTK inhibitor treatment period, safety population
[12] = BTK inhibitor 60 (N = 16), Weeks 1 to 4
[13] = BTK inhibitor 60 (N = 32), BTK inhibitor treatment period, safety population
[14] = BTKi 5 mg (N = 16), Weeks 1 to 4
[15] = BTKi 5 mg (n = 33), Weeks 1 to 12

With `C=CC(=O)N1CCC[C@@H](n2c(=O)n(-c3ccc(Oc4ccccc4)cc3)c3c(N)nccc32)C1` [the BTK inhibitor, (R)-1-(1-acryloylpiperidin-3-yl)-4-amino-3-(4-phenoxyphenyl)-1H-imidazo[4,5-c]pyridin-2(3H)-one] the “Alanine aminotransferase increased (TEAE)” value (5 mg, 12-week treatment period) was 1, the “Alopecia (TEAE)” value (5 mg, 12-week treatment period) was 1 and the “Back pain (TEAE)” value (5 mg, 12-week treatment period) was 1. For the same molecule, the “Gastroenteritis (TEAE)” value (5 mg, 12-week treatment period) was 1, the “Headache (TEAE)” value (5 mg, 12-week treatment period) was 1 and the “Nasopharyngitis (TEAE)” value (5 mg, 12-week treatment period) was 1. The “Oedema peripheral (TEAE)” value (5 mg, 12-week treatment period) was 2, the “Oropharyngeal pain (TEAE)” value (5 mg, 12-week treatment period) was 1 and the “Upper respiratory tract infection (TEAE)” value (5 mg, 12-week treatment period) was 2. For the same molecule, the “Proportion of participants with TEAEs” value (5 mg) was 57.6%, the “Headache (TEAE)” value (5 mg, Weeks 1 to 4) was 3 cases and the “Nausea (TEAE)” value (5 mg, Weeks 1 to 4) was 2 cases. The “Proportion of participants who experienced TEAEs” value (5 mg, Weeks 1 to 4) was 31.3%, the “Alopecia (TEAE)” value [1] was 1 and the “Back pain (TEAE)” value [1] was 1. For the same molecule, the “Headache (TEAE)” value [1] was 3, the “Respiratory tract infection (TEAE)” value [1] was 1 and the “Upper respiratory tract infection (TEAE)” value [1] was 2. For the same molecule, the “Proportion of participants with TEAEs” value (15 mg) was 53.1%, the “Headache (TEAE)” value (15 mg, Weeks 1 to 4) was 2 cases and the “Proportion of participants who experienced TEAEs” value (15 mg, Weeks 1 to 4) was 18.8%. For the same molecule, the “AESIs (alanine aminotransferase increased >3×ULN)” value (30 mg treatment period) was 1, the “Alanine aminotransferase increased (TEAE)” value [2] was 1 and the “Back pain (TEAE)” value [2] was 2. For the same molecule, the “Headache (TEAE)” value [2] was 1, the “Muscle spasticity (TEAE)” value [2] was 1 and the “Nasopharyngitis (TEAE)” value [2] was 1. The “Oropharyngeal pain (TEAE)” value [2] was 1, the “Respiratory tract infection (TEAE)” value [2] was 1 and the “Upper respiratory tract infection (TEAE)” value [2] was 1. For the same molecule, the “Proportion of participants with TEAEs” value (30 mg) was 54.5%, the “Nausea (TEAE)” value (30 mg, Weeks 1 to 4) was 1 cases and the “Proportion of participants who experienced TEAEs” value (30 mg, Weeks 1 to 4) was 12.5%. For the same molecule, the “Severe TEAEs” value (60 mg group, all other TEAEs mild or moderate) was “one”, the “AESIs (alanine aminotransferase increased >3×ULN)” value (60 mg treatment period) was 1 and the “Treatment-emergent SAEs (MS relapse)” value (60 mg, Cohort 1, about 8 weeks after starting treatment) was “One”. For the same molecule, the “Accidental overdose (TEAE)” value [3] was 3, the “Alanine aminotransferase increased (TEAE)” value [3] was 1 and the “Alopecia (TEAE)” value [3] was 1. For the same molecule, the “Gastroenteritis (TEAE)” value [3] was 2, the “Headache (TEAE)” value [3] was 4 and the “Muscle spasticity (TEAE)” value [3] was 2. The “Nasopharyngitis (TEAE)” value [3] was 3, the “Oedema peripheral (TEAE)” value [3] was 2 and the “Oropharyngeal pain (TEAE)” value [3] was 1. The “Respiratory tract infection (TEAE)” value [3] was 1, the “Upper respiratory tract infection (TEAE)” value [3] was 1 and the “Proportion of participants with TEAEs” value (60 mg) was 50.0%. For the same molecule, the “Headache (TEAE)” value (60 mg, Weeks 1 to 4) was 1 cases, the “Proportion of participants who experienced TEAEs” value (60 mg, Weeks 1 to 4) was 31.3% and the “Correlation between dose administered and number of TEAEs” value (5-60 mg) was “no direct correlation”. For the same molecule, the Tolerability (5-60 mg once daily, over the 12 weeks of treatment) was “well-tolerated”, the “AESI: Alanice aminotransferase increased” value [4] was 2 (1.5) n (%) and the “AESI: Investigations” value [4] was 2 (1.5) n (%). The “Any AESI” value [4] was 2 (1.5) n (%), the “Participants with any TEAE” value [4] was 69 (53.1) n (%) and the “Participants with any TEAE leading to death” value [4] was 0 n (%). For the same molecule, the “Participants with any TEAE leading to study treatment discontinuation” value [4] was 0 n (%), the “Participants with any severe TEAE” value [4] was 1 (0.8) n (%) and the “Participants with any treatment emergent SAE” value [4] was 1 (0.8) n (%). For the same molecule, the “Participants with any treatment-related TEAE” value [4] was 15 (11.5) n (%), the “Participants with study discontinuation due to any TEAE” value [4] was 0 n (%) and the “Participants with treatment emergent SAE(s): Any class” value [4] was 1 (0.8) n(%). The “Participants with treatment emergent SAE(s): Multiple sclerosis relapse” value [4] was 1 (0.8) n(%), the “Participants with treatment emergent SAE(s): NERVOUS SYSTEM DISORDERS” value [4] was 1 (0.8) n(%) and the “Participants with any TEAE leading to death” value (All (N = 130), Weeks 1 to 4) was 0 n (%). The “Participants with any TEAE leading to study treatment discontinuation” value (All (N = 130), Weeks 1 to 4) was 0 n (%), the “Participants with any severe TEAE” value (All (N = 130), Weeks 1 to 4) was 0 n (%) and the “Participants with any treatment emergent SAE” value (All (N = 130), Weeks 1 to 4) was 0 n (%). For the same molecule, the “Participants with study discontinuation due to any TEAE” value (All (N = 130), Weeks 1 to 4) was 0 n (%), the “Adverse event: Accidental overdose” value (All Dose Groups (N = 130)) was 3 (2%) and the “Adverse event: Alanine aminotransferase increased” value (All Dose Groups (N = 130)) was 3 (2%). The “Adverse event: Alopecia” value (All Dose Groups (N = 130)) was 3 (2%), the “Adverse event: Back pain” value (All Dose Groups (N = 130)) was 4 (3%) and the “Adverse event: Gastroenteritis” value (All Dose Groups (N = 130)) was 3 (2%). For the same molecule, the “Adverse event: Headache” value (All Dose Groups (N = 130)) was 9 (7%), the “Adverse event: Muscle spasticity” value (All Dose Groups (N = 130)) was 3 (2%) and the “Adverse event: Nasopharyngitis” value (All Dose Groups (N = 130)) was 5 (4%). The “Adverse event: Oropharyngeal pain” value (All Dose Groups (N = 130)) was 3 (2%), the “Adverse event: Peripheral edema” value (All Dose Groups (N = 130)) was 4 (3%) and the “Adverse event: Respiratory tract infection” value (All Dose Groups (N = 130)) was 3 (2%). The “Adverse event: Upper respiratory tract infection” value (All Dose Groups (N = 130)) was 6 (5%), the “AE leading to death” value [5] was 0 n (%) and the “AE leading to study discontinuation” value [5] was 0 n (%). For the same molecule, the “Any AE (4 weeks vs. placebo 12 weeks)” value [5] was 70 (53.8) n (%), the “Any AE leading to study treatment discontinuation” value (from here on “Any AE leading”) [5] was 0 n (%) and the “Any treatment-related AE” value [5] was 17 (13.1) n (%). For the same molecule, the “Serious AE” value [5] was 1 (0.8) n (%), the “AESI: Alanice aminotransferase increased” value [6] was 0 n (%) and the “AESI: Investigations” value [6] was 0 n (%). The “Any AESI” value [6] was 0 n (%), the “AESI: Investigations” value [7] was 0 n (%) and the “Any AESI” value [7] was 0 n (%). For the same molecule, the “AESI: Alanice aminotransferase increased” value (BTK inhibitor 5, BTK inhibitor treatment period, safety population) was 0 n (%), the “AESI: Alanice aminotransferase increased” value [8] was 0 n (%) and the “AESI: Investigations” value [8] was 0 n (%). The “Any AESI” value [8] was 0 n (%), the “AESI: Alanice aminotransferase increased” value [9] was 0 n (%) and the “AESI: Investigations” value [9] was 0 n (%). The “Any AESI” value [9] was 0 n (%), the “AESI: Alanice aminotransferase increased” value [10] was 0 n (%) and the “AESI: Investigations” value [10] was 0 n (%). The “Any AESI” value [10] was 0 n (%), the “AESI: Alanice aminotransferase increased” value [11] was 1 (3.0) n (%) and the “AESI: Investigations” value [11] was 1 (3.0) n (%). For the same molecule, the “Any AESI” value [11] was 1 (3.0) n (%), the “AESI: Alanice aminotransferase increased” value [12] was 0 n (%) and the “AESI: Investigations” value [12] was 0 n (%). For the same molecule, the “Any AESI” value [12] was 0 n (%), the “AESI: Alanice aminotransferase increased” value [13] was 1 (3.1) n (%) and the “AESI: Investigations” value [13] was 1 (3.1) n (%). The “Any AESI” value [13] was 1 (3.1) n (%), the “Participants with any TEAE” value (BTK inhibitor treatment period, safety population) was 18 (54.5) n (%) and the “AE leading to death” value [14] was 0. For the same molecule, the “AE leading to study discontinuation” value [14] was 0, the “Any AE leading” value [14] was 0 and the “Serious AE” value [14] was 0. The “Adverse event: Accidental overdose” value (BTKi 5 mg (n = 33)) was 0%, the “Adverse event: Alanine aminotransferase increased” value (BTKi 5 mg (n = 33)) was 1 (3%) and the “Adverse event: Alopecia” value (BTKi 5 mg (n = 33)) was 1 (3%). The “Adverse event: Back pain” value (BTKi 5 mg (n = 33)) was 1 (3%), the “Adverse event: Gastroenteritis” value (BTKi 5 mg (n = 33)) was 1 (3%) and the “Adverse event: Headache” value (BTKi 5 mg (n = 33)) was 1 (3%). The “Adverse event: Muscle spasticity” value (BTKi 5 mg (n = 33)) was 0%, the “Adverse event: Nasopharyngitis” value (BTKi 5 mg (n = 33)) was 1 (3%) and the “Adverse event: Oropharyngeal pain” value (BTKi 5 mg (n = 33)) was 1 (3%). The “Adverse event: Peripheral edema” value (BTKi 5 mg (n = 33)) was 2 (6%), the “Adverse event: Respiratory tract infection” value (BTKi 5 mg (n = 33)) was 0% and the “Adverse event: Upper respiratory tract infection” value (BTKi 5 mg (n = 33)) was 2 (6%). The “AE leading to death” value [15] was 0 n (%), the “AE leading to study discontinuation” value [15] was 0 n (%) and the “Any AE (4 weeks vs. placebo 12 weeks)” value [15] was 19 (57.6) n (%). The “Any AE leading” value [15] was 0 n (%).
